# Measured values published in patent US7045497B1, “Use of peptide” (Takeda Chemical Industries, Ltd., priority 1998, dated 2006).
# No end group written: not given here.
# System: oxytocin secretion
# Experiment: Effect of third intraventricular administration of PrRP (19P2-L31) on amount of oxytocin secreted in plasma (radioimmunoassay)
# Format: in vivo, Mature male Wistar rats
# Experimental: Mature male Wistar rats (weighing 350 to 380 g at the time of surgery) were anesthetized by intraperitoneal administration of 50 mg/kg pentobarbital, and were fixed in a rat brain stereotactic instrument. The brace bar was lowered 3.3 mm from the intra-oral line. The cranial bone was exposed, and a dental drill was used to perforate the bone in order to implant a guide cannula AG-12 (inside diameter 0.4 mm, outside diameter 0.5 mm, Eicom) into the third ventricle. Anchor screws were embedded in four locations around the cannula. The stainless steel guide cannula AG-12 was inserted to a position at the top of the third ventricle. Position coordinates were AP: +7.1 mm, L: 0.0 mm, and H: +2.0 mm, in accordance with the atlas of Paxinos and Watson (1986). The guide cannula was secured to the cranial bone using instant adhesive, dental cement, and the anchor screws. A stainless steel dummy cannula AD-12 (outside diameter 0.35 mm, Eicom) was inserted into the guide cannula and secured with a cap nut (Eicom). Following surgery, the rats were bred in individual cages.
# Animal were given about 1 week to recover after implantation of the guide cannulas, and blood was drawn as the animals were allowed to move freely. Rats which had undergone the aforementioned surgery were anesthetized by intraperitoneal administration of 50 mg/kg pentobarbital. […]
substance,measurement,setting,value
"PrRP (19P2-L31): physiologically active peptide, ligand for G protein-coupled receptors phGR3 (GPR10) and UHR-1; described in Nature 393:272–276 (1998) and WO 97/24436 (SRTHRHSMEIRTPDINPAWYASRGIRPVGRF; ends and bridges not checked; UniProt P81277 23-53, looked up)",oxytocin concentration in blood relative to control group,"rat, 10 nmol to the third ventricle, 5 minutes after administration, FIG. 2",about 2 times
same,oxytocin concentration in blood after intraventricular administration,"rats, intraventricular administration, result in words",elevated oxytocin concentration in blood
